Measured values reported in ChEMBL document CHEMBL1201862, “PubChem BioAssay data set” (2004).
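Dose response: 5 concentrations. Exposure: 48 h. Format: 96-well plates. Endpoint: linear interpolation; highest concentration if not reached. Abbreviation: GI50, concentration required for 50% inhibition of growth.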 Calls of active or inactive are those of the source. Cut-off read from the data, not from the text of the source: active = GI50 up to about 1.1 µM and inactive = higher.

What was measured:
Assay in all cases: NCI-60 cell line screen, 48 h
CAKI-1 = test system: CAKI-1
DU-145 = test system: DU-145
HCC 2998 = test system: HCC 2998
HL-60 = test system: HL-60
IGROV-1 = test system: IGROV-1
M14 = test system: M14
MDA-MB-435 = test system: MDA-MB-435
MDA-N = test system: MDA-N
MOLT-4 = test system: MOLT-4
NCI-H226 = test system: NCI-H226
NCI-H23 = test system: NCI-H23
OVCAR-3 = test system: OVCAR-3
RPMI-8226 = test system: RPMI-8226
SK-MEL-28 = test system: SK-MEL-28
SN12C = test system: SN12C
SR = test system: SR
SW-620 = test system: SW-620
TK-10 = test system: TK-10
UACC-257 = test system: UACC-257
SK-OV-3 = test system: SK-OV-3

Compound | GI50 (CAKI-1) | GI50 (DU-145) | GI50 (HCC 2998) | GI50 (HL-60) | GI50 (IGROV-1) | GI50 (M14) | GI50 (MDA-MB-435) | GI50 (MDA-N) | GI50 (MOLT-4) | GI50 (NCI-H226) | GI50 (NCI-H23) | GI50 (OVCAR-3) | GI50 (RPMI-8226) | GI50 (SK-MEL-28) | GI50 (SN12C) | GI50 (SR) | GI50 (SW-620) | GI50 (TK-10) | GI50 (UACC-257) | GI50 (SK-OV-3)
CCN(CC)CCNc1nc2ccc([N+](=O)[O-])cc2[n+]([O-])n1 | 41.9 µM (inactive) | 34.2 µM (inactive) | 11.4 µM (inactive) | 3.44 µM (inactive) | 15.7 µM (inactive) | 16.2 µM (inactive) | 16.1 µM (inactive) | 14.9 µM (inactive) | 18.9 µM (inactive) | 83 µM (inactive) | 18.3 µM (inactive) | 30.3 µM (inactive) | 14.7 µM (inactive) | 71.6 µM (inactive) | 19 µM (inactive) | 18.4 µM (inactive) | 16.2 µM (inactive) | 43.1 µM (inactive) | 15.8 µM (inactive) | –
O=C1Nc2ccccc2/C1=C1/Nc2ccccc2/C1=N\OCCOC1OCC(O)C(O)C1O (configuration not stated) | 6.78 µM (inactive) | > 100 µM (inactive) | 25.5 µM (inactive) | > 100 µM (inactive) | 5.35 µM (inactive) | 43.4 µM (inactive) | > 100 µM (inactive) | > 100 µM (inactive) | 85.7 µM (inactive) | 69.3 µM (inactive) | > 100 µM (inactive) | > 100 µM (inactive) | > 100 µM (inactive) | > 100 µM (inactive) | > 100 µM (inactive) | 33 µM (inactive) | > 100 µM (inactive) | 81.3 µM (inactive) | > 100 µM (inactive) | 1.68 µM (inactive)
COc1cc(C2OC[C@@H]3C(=O)OC[C@H]23)cc(O)c1OC (some centres not stated) | > 100 µM (inactive) | > 100 µM (inactive) | > 100 µM (inactive) | > 100 µM (inactive) | > 100 µM (inactive) | > 100 µM (inactive) | > 100 µM (inactive) | > 100 µM (inactive) | > 100 µM (inactive) | > 100 µM (inactive) | > 100 µM (inactive) | > 100 µM (inactive) | > 100 µM (inactive) | – | > 100 µM (inactive) | > 100 µM (inactive) | > 100 µM (inactive) | > 100 µM (inactive) | > 100 µM (inactive) | > 100 µM (inactive)
CCCCCCCCOC(=O)c1cc([N+](=O)[O-])c(Sc2[nH]cnc3ncnc2-3)c([N+](=O)[O-])c1 | 3.37 µM (inactive) | 1.27 µM (inactive) | 3.66 µM (inactive) | 1.52 µM (inactive) | 4.07 µM (inactive) | 0.56 µM (active) | 2.06 µM (inactive) | 1.35 µM (inactive) | 0.857 µM (active) | 2.03 µM (inactive) | 2.45 µM (inactive) | 1.01 µM (active) | 0.512 µM (active) | 19.1 µM (inactive) | 2.33 µM (inactive) | 1.1 µM (active) | 1.76 µM (inactive) | 1.85 µM (inactive) | 5.62 µM (inactive) | 0.695 µM (active)
CCCCCC(=O)Nc1[nH]cnc1C(N)=O | > 100 µM (inactive) | > 100 µM (inactive) | > 100 µM (inactive) | > 100 µM (inactive) | > 100 µM (inactive) | > 100 µM (inactive) | > 100 µM (inactive) | > 100 µM (inactive) | > 100 µM (inactive) | > 100 µM (inactive) | > 100 µM (inactive) | > 100 µM (inactive) | > 100 µM (inactive) | > 100 µM (inactive) | > 100 µM (inactive) | > 100 µM (inactive) | > 100 µM (inactive) | > 100 µM (inactive) | > 100 µM (inactive) | > 100 µM (inactive)
Cc1c(-c2ccccn2)ccc2ccccc12 | 45 µM (inactive) | > 100 µM (inactive) | 37.8 µM (inactive) | 44.6 µM (inactive) | – | > 100 µM (inactive) | 48.5 µM (inactive) | 61 µM (inactive) | 90.2 µM (inactive) | 43 µM (inactive) | 90.2 µM (inactive) | 41.4 µM (inactive) | 19 µM (inactive) | 85.5 µM (inactive) | 61.1 µM (inactive) | 56.1 µM (inactive) | 80.4 µM (inactive) | 45.2 µM (inactive) | > 100 µM (inactive) | > 100 µM (inactive)
CS/C(Nc1ccccc1)=C1\C(=O)N(c2ccccc2)N=C1C | 52 µM (inactive) | > 100 µM (inactive) | > 100 µM (inactive) | > 100 µM (inactive) | – | > 100 µM (inactive) | > 100 µM (inactive) | > 100 µM (inactive) | > 100 µM (inactive) | > 100 µM (inactive) | > 100 µM (inactive) | > 100 µM (inactive) | > 100 µM (inactive) | > 100 µM (inactive) | > 100 µM (inactive) | > 100 µM (inactive) | > 100 µM (inactive) | > 100 µM (inactive) | > 100 µM (inactive) | > 100 µM (inactive)
Fc1cc(C2=Nn3c(COc4ccccc4Cl)nnc3S/C2=C\c2ccc(Cl)cc2)c(Cl)cc1Cl | 8.02 µM (inactive) | 5.97 µM (inactive) | 3.6 µM (inactive) | 4.49 µM (inactive) | 3.8 µM (inactive) | 3.75 µM (inactive) | 2.26 µM (inactive) | 2.23 µM (inactive) | 5.97 µM (inactive) | 20.6 µM (inactive) | 1.96 µM (inactive) | 17.1 µM (inactive) | 3.08 µM (inactive) | 3.54 µM (inactive) | – | 4.39 µM (inactive) | 3.54 µM (inactive) | 11.6 µM (inactive) | 21.8 µM (inactive) | 19.3 µM (inactive)
Fc1ccc(OCc2nc3cc(C(F)(F)F)ccc3nc2-c2ccccc2)cc1 | > 100 µM (inactive) | > 100 µM (inactive) | 99.5 µM (inactive) | > 47 µM (inactive) | > 100 µM (inactive) | > 94 µM (inactive) | > 63.8 µM (inactive) | > 100 µM (inactive) | 13.2 µM (inactive) | > 100 µM (inactive) | > 100 µM (inactive) | > 100 µM (inactive) | 46.6 µM (inactive) | > 100 µM (inactive) | > 100 µM (inactive) | 41.9 µM (inactive) | > 100 µM (inactive) | – | > 23.8 µM (inactive) | –
CC1(C)C2CCC3=C(CCC4(C)C5C[C@](C)(C(=O)O)CC[C@]5(C)CC[C@]34C)[C@@]2(C)CC[C@@H]1O (some centres not stated) | 18.9 µM (inactive) | 18.3 µM (inactive) | 64.9 µM (inactive) | 18.1 µM (inactive) | 24.2 µM (inactive) | 17.5 µM (inactive) | 23.7 µM (inactive) | 18.8 µM (inactive) | 15.8 µM (inactive) | 29 µM (inactive) | 19.3 µM (inactive) | 15.9 µM (inactive) | 20.9 µM (inactive) | 17.5 µM (inactive) | – | 30.8 µM (inactive) | 16.6 µM (inactive) | 17.8 µM (inactive) | – | 20.2 µM (inactive)
CCOC(=O)/C(C#N)=C/c1ccc(CO)o1 | > 100 µM (inactive) | > 100 µM (inactive) | > 100 µM (inactive) | – | > 100 µM (inactive) | > 100 µM (inactive) | > 100 µM (inactive) | > 100 µM (inactive) | > 100 µM (inactive) | > 100 µM (inactive) | > 100 µM (inactive) | > 100 µM (inactive) | > 100 µM (inactive) | > 100 µM (inactive) | > 100 µM (inactive) | > 100 µM (inactive) | > 100 µM (inactive) | > 100 µM (inactive) | > 100 µM (inactive) | > 100 µM (inactive)
COc1cccc2c(N)c3cccc(C(=O)NCCN(C)C)c3nc12 | 0.103 µM (active) | 0.261 µM (active) | 0.179 µM (active) | – | 0.22 µM (active) | 0.432 µM (active) | 0.422 µM (active) | 0.321 µM (active) | < 0.01 µM (active) | 0.11 µM (active) | 0.132 µM (active) | 0.369 µM (active) | 0.221 µM (active) | 1.27 µM (inactive) | 0.0389 µM (active) | 0.0152 µM (active) | 0.0968 µM (active) | 0.439 µM (active) | 0.701 µM (active) | 0.233 µM (active)
O=c1c2cc(-c3ccccc3)cnc2sn1-c1ccc(Br)cc1 | > 100 µM (inactive) | > 100 µM (inactive) | > 100 µM (inactive) | > 100 µM (inactive) | 58.1 µM (inactive) | > 100 µM (inactive) | > 100 µM (inactive) | > 100 µM (inactive) | > 100 µM (inactive) | > 100 µM (inactive) | > 100 µM (inactive) | 37 µM (inactive) | > 100 µM (inactive) | > 100 µM (inactive) | > 100 µM (inactive) | > 100 µM (inactive) | > 100 µM (inactive) | – | > 100 µM (inactive) | > 100 µM (inactive)
NC1=C(N2CCCCC2)C(=O)NC2=N/C(=C\c3ccccc3)C(=O)N21 | > 100 µM (inactive) | > 100 µM (inactive) | > 100 µM (inactive) | 32 µM (inactive) | > 100 µM (inactive) | > 100 µM (inactive) | > 100 µM (inactive) | > 100 µM (inactive) | 62.1 µM (inactive) | > 100 µM (inactive) | > 100 µM (inactive) | – | > 100 µM (inactive) | > 100 µM (inactive) | > 100 µM (inactive) | 43.7 µM (inactive) | > 100 µM (inactive) | > 100 µM (inactive) | > 100 µM (inactive) | > 100 µM (inactive)
